Reference: patent publication US6410249B1, “Odorant receptors” (priority 1999, dated 2002)

Biological target: T1, receptor 5.24 (Carassius auratus, UniProt Q9PW88)
T1 construct: The receptor 5.24 full length cDNA detects 1-2 bands in genomic DNA blots; expressed in transfected cells; host or cells: HEK 293 cells expressing SV40 large T antigen (293-TSA)
T1 sequence (Q9PW88 25-877): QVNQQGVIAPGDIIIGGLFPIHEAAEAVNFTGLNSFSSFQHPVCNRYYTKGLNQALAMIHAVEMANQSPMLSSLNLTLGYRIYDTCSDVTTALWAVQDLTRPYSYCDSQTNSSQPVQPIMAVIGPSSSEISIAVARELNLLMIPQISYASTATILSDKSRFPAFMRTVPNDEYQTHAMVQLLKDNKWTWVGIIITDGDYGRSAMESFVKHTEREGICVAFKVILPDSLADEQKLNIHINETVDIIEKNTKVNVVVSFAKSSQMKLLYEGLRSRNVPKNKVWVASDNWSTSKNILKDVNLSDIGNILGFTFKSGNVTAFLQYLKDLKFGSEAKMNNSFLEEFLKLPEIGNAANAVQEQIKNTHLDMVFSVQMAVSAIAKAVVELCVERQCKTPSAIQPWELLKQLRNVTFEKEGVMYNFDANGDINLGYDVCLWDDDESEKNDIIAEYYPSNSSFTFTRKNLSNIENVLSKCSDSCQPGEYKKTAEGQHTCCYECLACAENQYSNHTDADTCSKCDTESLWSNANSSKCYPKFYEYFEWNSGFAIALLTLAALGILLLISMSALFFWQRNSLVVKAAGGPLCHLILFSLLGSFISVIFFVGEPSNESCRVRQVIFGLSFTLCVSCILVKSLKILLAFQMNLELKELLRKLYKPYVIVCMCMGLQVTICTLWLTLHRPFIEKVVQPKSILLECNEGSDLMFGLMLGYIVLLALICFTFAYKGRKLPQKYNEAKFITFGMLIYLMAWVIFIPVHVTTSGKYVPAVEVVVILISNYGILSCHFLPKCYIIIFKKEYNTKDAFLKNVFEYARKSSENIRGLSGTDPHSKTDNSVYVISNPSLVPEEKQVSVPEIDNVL
Experiment: IP3 accumulation in receptor 5.24-expressing HEK 293 cells
Type: cell-based, goldfish
Conditions: varying concentrations
Excerpt: High-Affinity Binding of Radiolabeled L-Arginine to the Cloned Goldfish Odorant Receptor. To determine the affinity of the cloned goldfish amino acid receptor for basic amino acids, we characterized the ligand-receptor interaction by radiolabeled ligand binding to receptors expressed in mammalian cells. Human embryonic kidney (HEK) 293 cells were transfected with expression plasmids containing the receptor 5.24 cDNA insert. […] We next wished to determine what second messenger pathway receptor 5.24 couples to in HEK 293 cells. Control cells or cells expressing receptor 5.24 were exposed to varying concentrations of arginine and assayed for the accumulation of IP3 and cAMP.
IP3 and cAMP Measurements. For measurements of IP3 and cAMP, cell lines 5.24-20 and 2.2-9 (negative control) were plated at densities of 3.5×10^5 cells/well in 24 well plates and incubated overnight in DMEM containing 10% FBS. All subsequent manipulations prior to reaction termination were performed at 37° C. in 5% CO2. […] IP3 levels were determined by a radioreceptor competition assay (Dupont NEN). For cAMP measurements, after the 3 hour amino acid-free preincubation cells were washed once with PBS, preincubated for 15 min in PBS containing 0.5 mM IBMX, and exposed to odorants in 400 μl PBS/0.5 mM IBMX for 30 min. cAMP levels were determined by radioimmunoassay (DuPont NEN).

SMILES: N=C(N)NCCC[C@H](N)C(=O)O [L-Arginine]
- IP3 accumulation, in words: specific increase in IP3
